Patent US20070144540A1, “Drug delivery through application in nails” (TLT Medical Ltd., priority 2004, published 2007)

Assay: in-vitro nail permeation assay in Franz-type diffusion cells
Assay type: in vitro ADME, human
Conditions: formulations with 5% and 10% (w/w) terbinafine in the vehicle of Table 3; nails with 400 orifices/cm^2, depth 0.5 mm (50% to 70% of nail plate thickness); single dose of 100 μL; 30° C.; up to 72 hours
Description: Franz-cells comprise two chambers separated by the nail plate. The radiolabelled [^14C]-terbinafine containing transungual formulations were applied in the donor upper chamber and the receptor chamber is filled with a buffer to simulate the human physiological conditions. To account for the fact the nails are hard and curved, wetted nails are clamped between two flexible flat silicone polymer disks. The temperature of the cells was kept a 30° C. using a circulating water bath. Magnetic stirrer bars were used to ensure receptor uniformity throughout an experiment.
The nail permeation assays consisted of exposing the dorsal side of the nail plates to the investigated formulations while monitoring the appearance the amount of radiolabelled [^14C]-terbinafine on the ventral side by […] in the receptor fluid chamber of the Franz cells. In all cases a single dose of 100 μL was applied in the nail dorsal side. 100 μL of buffer were taken for each time point for LSC measurement which was replaced by buffer in order to keep the total buffer volume constant. The sampling time points were 0, 1, 3, 5, 7, 24, 32, 48, 52, 55 and 72 hours.
Human cadaveric thumb toenails used in the permeation assays were harvested from diseased adults (age >50 years old) in order to match thickness and consistence of the nails of the patient age group having a higher incidence to onychomycosis. […]

CN(C/C=C/C#CC(C)(C)C)Cc1cccc2ccccc12 [terbinafine]
terbinafine permeation fluxes in laser pre-treated nails versus untreated nails: three to four times higher
